Source: US7381744B1, “Method of treating osteoporosis comprising vacuolar-type (H+)-ATPase-inhibiting compounds” (The United States of America as represented by the …, priority 1999, dated 2008)

Legend:
[1] = test system: CCRF-CEM; assay: NCI 60 cell-line screen; format: cell-based; details: Homo sapiens, Leukemia, averaged, quadruplicate testing, read-out: negative log10 GI50 (converted)
From the text: (§1) It is the concentration where 100×(T−To)/To=−50=PG. […] Res., 34, 91-109 (1995).

[2] = test system: UACC-62; assay: NCI 60 cell-line screen; format: cell-based; details: Homo sapiens, Melanoma, averaged, quadruplicate testing, read-out: negative log10 GI50 (converted)
From the text: as §1

[3] = test system: UO-31; assay: NCI 60 cell-line screen; format: cell-based; details: Homo sapiens, Kidney, averaged, quadruplicate testing, read-out: negative log10 GI50 (converted)
From the text: as §1

[4] = test system: SN-12C; assay: NCI 60 cell-line screen; format: cell-based; details: Homo sapiens, SN12C, Kidney, averaged, quadruplicate testing, read-out: negative log10 GI50 (converted)
From the text: as §1

[5] = test system: HCT-15; assay: NCI 60 cell-line screen; format: cell-based; details: Homo sapiens, Colon, averaged, quadruplicate testing, read-out: negative log10 GI50 (converted)
From the text: as §1

[6] = test system: HOP-62; assay: NCI 60 cell-line screen; format: cell-based; details: Homo sapiens, Lung, averaged, quadruplicate testing, read-out: negative log10 GI50 (converted)
From the text: as §1

[7] = test system: RPMI-8226; assay: NCI 60 cell-line screen; format: cell-based; details: Homo sapiens, Leukemia, averaged, quadruplicate testing, read-out: negative log10 GI50 (converted)
From the text: as §1

[8] = test system: SK-MEL-28; assay: NCI 60 cell-line screen; format: cell-based; details: Homo sapiens, Melanoma, averaged, quadruplicate testing, read-out: negative log10 GI50 (converted)
From the text: as §1

[9] = test system: NCI-H322M; assay: NCI 60 cell-line screen; format: cell-based; details: Homo sapiens, Lung, averaged, quadruplicate testing, read-out: negative log10 GI50 (converted)
From the text: as §1

[10] = test system: TK-10; assay: NCI 60 cell-line screen; format: cell-based; details: Homo sapiens, Kidney, averaged, quadruplicate testing, read-out: negative log10 GI50 (converted)
From the text: as §1

[11] = test system: COLO 205; assay: NCI 60 cell-line screen; format: cell-based; details: Homo sapiens, Colon, averaged, quadruplicate testing, read-out: negative log10 GI50 (converted)
From the text: as §1

[12] = test system: NCI-H460; assay: NCI 60 cell-line screen; format: cell-based; details: Homo sapiens, Lung, averaged, quadruplicate testing, read-out: negative log10 GI50 (converted)
From the text: as §1

[13] = test system: A498; assay: NCI 60 cell-line screen; format: cell-based; details: Homo sapiens, Kidney, averaged, quadruplicate testing, read-out: negative log10 GI50 (converted)
From the text: as §1

[14] = test system: MALME-3M; assay: NCI 60 cell-line screen; format: cell-based; details: Homo sapiens, Melanoma, averaged, quadruplicate testing, read-out: negative log10 GI50 (converted)
From the text: as §1

[15] = test system: EKVX; assay: NCI 60 cell-line screen; format: cell-based; details: Homo sapiens, Lung, averaged, quadruplicate testing, read-out: negative log10 GI50 (converted)
From the text: as §1

[16] = test system: MDA-MB-435; assay: NCI 60 cell-line screen; format: cell-based; details: Homo sapiens, Breast, averaged, quadruplicate testing, read-out: negative log10 GI50 (converted)
From the text: as §1

[17] = test system: SF-539; assay: NCI 60 cell-line screen; format: cell-based; details: Homo sapiens, Brain, averaged, quadruplicate testing, read-out: negative log10 GI50 (converted)
From the text: as §1

[18] = test system: SK-MEL-5; assay: NCI 60 cell-line screen; format: cell-based; details: Homo sapiens, Melanoma, averaged, quadruplicate testing, read-out: negative log10 GI50 (converted)
From the text: as §1

[19] = test system: NCI-H226; assay: NCI 60 cell-line screen; format: cell-based; details: Homo sapiens, Lung, averaged, quadruplicate testing, read-out: negative log10 GI50 (converted)
From the text: as §1

[20] = test system: SF-268; assay: NCI 60 cell-line screen; format: cell-based; details: Homo sapiens, Brain, averaged, quadruplicate testing, read-out: negative log10 GI50 (converted)
From the text: as §1

[21] = test system: A549/ATCC; assay: NCI 60 cell-line screen; format: cell-based; details: Homo sapiens, Lung, averaged, quadruplicate testing, read-out: negative log10 GI50 (converted)
From the text: as §1

[22] = test system: KM12; assay: NCI 60 cell-line screen; format: cell-based; details: Homo sapiens, Colon, averaged, quadruplicate testing, read-out: negative log10 GI50 (converted)
From the text: as §1

[23] = test system: SNB-75; assay: NCI 60 cell-line screen; format: cell-based; details: Homo sapiens, Brain, averaged, quadruplicate testing, read-out: negative log10 GI50 (converted)
From the text: as §1

[24] = test system: MCF-7-ADR-RES; assay: NCI 60 cell-line screen; format: cell-based; details: Homo sapiens, Breast, averaged, quadruplicate testing, read-out: negative log10 GI50 (converted)
From the text: as §1

[25] = test system: OVCAR-3; assay: NCI 60 cell-line screen; format: cell-based; details: Homo sapiens, Ovary, averaged, quadruplicate testing, read-out: negative log10 GI50 (converted)
From the text: as §1

[26] = test system: HS-578T; assay: NCI 60 cell-line screen; format: cell-based; details: Homo sapiens, Breast, averaged, quadruplicate testing, read-out: negative log10 GI50 (converted)
From the text: as §1

[27] = test system: HOP-92; assay: NCI 60 cell-line screen; format: cell-based; details: Homo sapiens, Lung, averaged, quadruplicate testing, read-out: negative log10 GI50 (converted)
From the text: as §1

[28] = test system: 786-0; assay: NCI 60 cell-line screen; format: cell-based; details: Homo sapiens, Kidney, averaged, quadruplicate testing, read-out: negative log10 GI50 (converted)
From the text: as §1

[29] = test system: SNB-19; assay: NCI 60 cell-line screen; format: cell-based; details: Homo sapiens, Brain, averaged, quadruplicate testing, read-out: negative log10 GI50 (converted)
From the text: as §1

[30] = test system: U251; assay: NCI 60 cell-line screen; format: cell-based; details: Homo sapiens, U-251, Brain, averaged, quadruplicate testing, read-out: negative log10 GI50 (converted)
From the text: as §1

[31] = test system: OVCAR-5; assay: NCI 60 cell-line screen; format: cell-based; details: Homo sapiens, Ovary, averaged, quadruplicate testing, read-out: negative log10 GI50 (converted)
From the text: as §1

[32] = test system: LOX-IMVI; assay: NCI 60 cell-line screen; format: cell-based; details: Homo sapiens, Melanoma, averaged, quadruplicate testing, read-out: negative log10 GI50 (converted)
From the text: as §1

[33] = test system: mammalian vacuolar-type (H+)-ATPase (from chromaffin granule membranes); assay: mammalian vacuolar-type (H+)-ATPase inhibition, side-by-side test; format: biochemical; details: chromaffin granule membranes; side-by-side test
From the text: The inhibitory data were obtained using the same procedures and biological preparations described in Bowman et al., Proc. Natl. Acad. Sci. USA, 85, 7972-7976 (November 1988).

## CC/C=C\C=C/C(=O)N/C=C/CC1CC(O)C(C)C/C=C/Cc2cccc(O)c2C(=O)O1 (stereo not drawn) [salicylihalamide A]
[1]
  GI50: 0.0129 µM
[2]
  GI50: 0.00417 µM
[3]
  GI50: 0.0049 µM
[4]
  GI50: 0.017 µM
[5]
  GI50: 0.00363 µM
[6]
  GI50: 0.00417 µM
[7]
  GI50: 0.0129 µM
[8]
  GI50: 0.1 µM
[9]
  GI50: 0.191 µM
[10]
  GI50: 1.82 µM
[11]
  GI50: 0.00851 µM
[12]
  GI50: 0.000977 µM
[13]
  GI50: 0.282 µM
[14]
  GI50: 0.024 µM
[15]
  GI50: 0.0302 µM
[16]
  GI50: 0.0151 µM
[17]
  GI50: 0.0129 µM
[18]
  GI50: 0.001 µM
[19]
  GI50: 0.00158 µM
[20]
  GI50: 0.0282 µM
[21]
  GI50: 0.00288 µM
[22]
  GI50: 0.00501 µM
[23]
  GI50: 0.617 µM
[24]
  GI50: 0.00851 µM
[25]
  GI50: 0.0933 µM
[26]
  GI50: 1.41 µM
[27]
  GI50: 0.017 µM
[28]
  GI50: 0.012 µM
[29]
  GI50: 0.339 µM
[30]
  GI50: 0.0269 µM
[31]
  GI50: 0.00776 µM
[32]
  GI50: 0.000776 µM
[33]
  inhibitory activity against mammalian vacuolar-type (H+)-ATPase: potent inhibitor
